In patent publication US10864168B2, “Bioactive delivery vehicles” (The Regents of the University of California, priority 2014, dated 2020):

Experiments:
L. starkeyi (51-55) = assay: Encapsulation of curcumin into cultured yeast, lipogenesis induced or suppressed; type: physicochemical, Lipomyces starkeyi; details: vacuum infused, 35% ethanol
From the text: Increased lipid content both improves the relative encapsulation efficiency of hydrophobic bioactives and the oxidative stability of encapsulated bioactives. In this aim, three strains (Saccharomyces cerevisiae, Candida utilis, Phaffia rhodozyma) of yeast with high and low lipid content (high lipid ascomycete and Saccharomyces cerevisiae (low lipid)) are selected. Similarly, and two strains of algal cells are selected (Chlorella minutissima (UTEX 2341), Chlorella sorokiniana (UTEX 2805). The yeast and algal cells are cultured to achieve varying levels of lipid content by influencing the extracellular nutrients, e.g. in the case of algal cells, deprivation of nitrogen in extracellular media can shift the metabolism to generate lipids, with varying levels of nitrogen, intracellular lipid content is modulated. The intracellular lipids are extracted from freeze dried yeast and algal cells and measured using established gravimetric methods. To induce lipogenesis, 5 mL of the pre-culture are transferred into a 500 mL baffled conical flask with 95 mL of media A (50 g/L glucose, 1.5 g/L yeast extract, 0.5 g/L NH4Cl, 7.0 g/L KH2PO4, 2.5 g/L Na2HPO4.2H2O, 1.5 g/L MgSO4.7H2O, 0.08 g/L FeCl3.6H2O, 10.0 mg/L ZnSO4.7H2O, 0.07 mg/L MnSO4.H2O, 0.1 mg/L CuSO4, 0.063 mg/L Co(NO3)2) and closed with a foam cap. […]

E. coli (BL21) = assay: Encapsulation efficiency into bacteria by vacuum infusion; type: physicochemical; details: vacuum infused, 35% ethanol
L. casei (S1) = assay: as above; type: physicochemical, Lactobacillus casei; details: vacuum infused, 35% ethanol
porcine mouth mucosa = assay: Curcumin release and diffusion in porcine mouth mucosa from yeast encapsulation system
Method: Curcumin release and diffusion in porcine mouth mucosa from yeast encapsulation system was evaluated. Yeast microcapsules loaded with curcumin were topically applied on the porcine oral cavity tissue. After incubations for corresponding time periods, curcumin permeation was detected by imaging the tissue cross-sections. Both integrated pixel intensity and penetration distance from skin top surface were calculated. The results are depicted in FIG. 18. […] Furthermore, the yeast carriers can be engineered to act as a programmable microcarrier system that can provide controlled or triggered release of bioactive components in oral mucosa. This engineering can be accomplished by physical, chemical and/or genetic modification of the cell wall and cytoplasmic composition of yeast cells including modification of their lipid content.

Chlorella minutissima = assay: Encapsulation of curcumin in algae cells using pressure assisted encapsulation; type: physicochemical; details: vacuum sealing, 5% ethanol, 100 mg cells
From the text: (§1) Briefly, 1 gm of yeast or algal cells pellet is suspended in the 35% ethanolic solution of the selected bioactive compound. […] We have determined the % ethanol to achieve sufficient encapsulation of the selected encapsulated bioactive compounds using both the vacuum and high pressure assisted encapsulation process. Yeast or algal cell samples suspended in the ethanolic solution with the bioactive compound are sealed in boilable vacuum bags (Prime Source) at 99% vacuum (Ultravac 250, Koch Equipment LLC). […] The sealed samples are covered with aluminum foil to prevent any photo-degradation of the bioactives and incubated at room temperature (25° C.) for 10 minutes. Samples are emptied into 50 mL centrifuge tubes, centrifuged at 2200 rpm for 10 minutes to pellet the cells and the pelleted cells are washed twice with ethanolic solution (35%) and then five times with excess water to remove unencapsulated bioactives. Cells are sonicated to disrupt the cellular structure. […] The concentration of bioactive compound dissolved in the organic phase is measured using UV-vis spectrophotometer. […] The encapsulation efficiency is determined as follows: [formula] where CE is the mass of extracted bioactive from the cells after encapsulation and CT is the amount of bioactive initially added to the cells. […]

Chlorella sorokiniana = assay: as above; type: physicochemical; details: vacuum sealing, 5% ethanol, 50 mg cells
From the text: as §1

Compound: COc1cc(/C=C/C(=O)CC(=O)/C=C/c2ccc(O)c(OC)c2)ccc1O [Curcumin, curcumin]
- Mass of Encapsulated Bioactive in Yeast (L. starkeyi (51-55); lipogenesis Induced): 0.559 mg/g
- Mass of Encapsulated Bioactive in Yeast (L. starkeyi (51-55); lipogenesis Suppressed): 0.466 mg/g
- Mass of Encapsulated Bioactive in Bacteria (E. coli (BL21)): 0.489 mg/g
- Mass of Encapsulated Bioactive in Bacteria (L. casei (S1)): 1.041 mg/g
- integrity of the compound in tissue (porcine mouth mucosa; after 12 h): remained intact
- diffusion into mouth mucosa tissue (porcine mouth mucosa; yeast microcapsules loaded with curcumin, topically applied): diffused into mouth mucosa tissue with a strong time-dependent manner
- Mass of Encapsulated Bioactive in Algae (Chlorella minutissima): 0.184 mg/g
- Mass of Encapsulated Bioactive in Algae (Chlorella sorokiniana): 0.355 mg/g
